One experiment concerns the target Hpk1 (Homo sapiens, UniProt Q92918). Kind of experiment: SLP76 phosphorylation assay (SLP76 pS376 in lysates of HEK293 cells engineered to express Hpk1 and SLP76). It is filed as cell-based. As to conditions: HEK293 cells expressing Hpk1 and SLP76, 4 hours incubation; read-out: pSLP76 (HEK293) (pIC50) (converted). The method in brief: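 HEK293 cells expressing Hpk1 and SLP76 were treated with serially diluted compounds for 4 h at 37 °C/5% CO2, then lysed. SLP76 pS376 in lysates was quantified by electrochemiluminescent immunoassay. IC50 was fitted after subtracting signal from cells expressing SLP76 only.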

The next experiment addresses T1, full-length human Hpk1 (Homo sapiens, UniProt Q92918).
T1 construct: A recombinant fusion protein consisting of full-length human Hpk1; GST (N)
Kind of experiment: HPK1 kinase assay (ADP Glo Kinase Assay). Format: biochemical. As to conditions: full-length human GST-Hpk1, ADP Glo, 75 μM ATP; read-out: Hpk1 biochemical (pIC50) (converted). Put shortly:
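GST-tagged full-length human Hpk1 from baculovirus/insect cells, preincubated with compound 30-45 min at room temperature in 40 mM Tris pH 7.5, 2 mM DTT, 0.05% BSA, 5 mM MgCl2. Reaction started with buffer containing 75 μM ATP (stock, before addition) and run 120 min. ADP formed read by ADP Glo luminescence.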
(In general: ADP-Glo first removes unused ATP, then detects ADP through luciferase.)

T1 sequence (Q92918 whole entry, the tested form may be a part): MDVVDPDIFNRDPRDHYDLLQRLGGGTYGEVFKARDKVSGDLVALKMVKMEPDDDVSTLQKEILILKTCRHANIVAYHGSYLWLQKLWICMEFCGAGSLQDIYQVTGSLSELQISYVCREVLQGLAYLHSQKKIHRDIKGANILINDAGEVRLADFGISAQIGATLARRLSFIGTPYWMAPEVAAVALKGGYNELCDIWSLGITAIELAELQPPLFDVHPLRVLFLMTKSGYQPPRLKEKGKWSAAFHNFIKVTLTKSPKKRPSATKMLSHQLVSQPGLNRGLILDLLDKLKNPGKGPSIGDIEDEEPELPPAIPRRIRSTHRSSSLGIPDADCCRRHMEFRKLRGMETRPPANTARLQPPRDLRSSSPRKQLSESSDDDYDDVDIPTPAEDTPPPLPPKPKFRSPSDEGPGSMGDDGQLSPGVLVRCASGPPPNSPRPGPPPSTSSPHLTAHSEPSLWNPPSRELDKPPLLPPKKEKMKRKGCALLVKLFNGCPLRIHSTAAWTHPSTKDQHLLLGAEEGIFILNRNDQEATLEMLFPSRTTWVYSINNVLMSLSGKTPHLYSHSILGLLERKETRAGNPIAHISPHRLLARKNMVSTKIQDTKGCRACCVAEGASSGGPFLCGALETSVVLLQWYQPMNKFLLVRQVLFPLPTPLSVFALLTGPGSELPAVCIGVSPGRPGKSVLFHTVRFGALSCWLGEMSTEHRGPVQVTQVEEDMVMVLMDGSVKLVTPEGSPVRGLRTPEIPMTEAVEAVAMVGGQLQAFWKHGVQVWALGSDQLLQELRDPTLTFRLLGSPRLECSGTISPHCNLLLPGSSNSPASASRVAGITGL
Sequence of Hpk1 (Q92918 whole entry): as the sequence (Q92918 whole entry, the tested form may be a part) above

Consider `Nc1ncc(-c2ccc(C3CCS(=O)(=O)CC3)c([C@@H]3CCCN3)c2)cc1-c1ccnc(F)c1` [Co. 100], for which the IC50 at Hpk1 is 1860 nM; on full-length human Hpk1, 19.5 nM.

Turning to `Nc1ncc(-c2ccc(C3CCOCC3)c([C@@H]3CCCN3)c2)cc1C1CCS(=O)(=O)CC1` [Co. 102], the IC50 at Hpk1 was greater than 10000 nM; on full-length human Hpk1, 295 nM.

For the molecule `Nc1ncc(-c2ccc(C3CCOCC3)c([C@@H]3CN4CCCC[C@H]4CN3)c2)cc1Br` [Co. 104], the IC50 is 7940 nM on Hpk1 and 58.9 nM on full-length human Hpk1.

As for `Nc1ncc(-c2ccc(C3CCOCC3)c(CNC3COC3)c2)cc1-c1ccnc(F)c1` [Co. 105], the IC50 at Hpk1 is greater than 10000 nM; at full-length human Hpk1, 380 nM.

As for `CN(Cc1cc(-c2cnc(N)c(-c3ccncc3)c2)ccc1C1CCOCC1)C1CC1` [Co. 106], the figures for the IC50 at Hpk1 and on full-length human Hpk1 were 7410 nM and 178 nM, respectively.

As to `Nc1ncc(-c2ccc(C3CCOCC3)c(CN3CCCC3)c2)cc1-c1ccncc1` [Co. 108], the figures for the IC50 at Hpk1 and at full-length human Hpk1 were 7590 nM and 117 nM, respectively.

Consider `CN(C)Cc1cc(-c2cnc(N)c(C(=O)NCCO)c2)ccc1C1CCOCC1` [Co. 110], for which the IC50 on Hpk1 is 4680 nM; on full-length human Hpk1 it was 89.1 nM.

Take `CC(CO)CNC(=O)c1cc(-c2ccc(C3CCOCC3)c(CN(C)C)c2)cnc1N` (stereo not drawn) [Co. 111]: the IC50 was 5890 nM at Hpk1 and 110 nM at full-length human Hpk1.

As for `Nc1ncc(-c2ccc(C3CCOCC3)c([C@@H]3CCCN3)c2)cc1-c1ccc(=O)[nH]c1` [Compound 56], the IC50 at Hpk1 was greater than 10000 nM; at full-length human Hpk1 it was 35.5 nM.

The values are drawn from US12492194B2, “HPK1 inhibitors” (Janssen Pharmaceutica NV, priority 2019, dated 2025).
